Reference: paper PMC3433414, “Oral Administration of the Pimelic Diphenylamide HDAC Inhibitor HDACi 4b Is Unsuitable for Chronic Inhibition of HDAC Activity in the CNS In Vivo” (PLoS ONE, 2012)
Where two headings read alike, the source gives them in different places. Blank lines part the entries; values can stand above or below the compound they belong to.

Assays:
NK1 (h) = target: T1, NK1 (h) (Homo sapiens, UniProt P25103); assay: Cerep binding, agonist radioligand; settings: read-out: % inhibition of control specific binding
T1 construct: purchased Cerep (Diversity Profile)
T1 sequence (P25103 whole entry): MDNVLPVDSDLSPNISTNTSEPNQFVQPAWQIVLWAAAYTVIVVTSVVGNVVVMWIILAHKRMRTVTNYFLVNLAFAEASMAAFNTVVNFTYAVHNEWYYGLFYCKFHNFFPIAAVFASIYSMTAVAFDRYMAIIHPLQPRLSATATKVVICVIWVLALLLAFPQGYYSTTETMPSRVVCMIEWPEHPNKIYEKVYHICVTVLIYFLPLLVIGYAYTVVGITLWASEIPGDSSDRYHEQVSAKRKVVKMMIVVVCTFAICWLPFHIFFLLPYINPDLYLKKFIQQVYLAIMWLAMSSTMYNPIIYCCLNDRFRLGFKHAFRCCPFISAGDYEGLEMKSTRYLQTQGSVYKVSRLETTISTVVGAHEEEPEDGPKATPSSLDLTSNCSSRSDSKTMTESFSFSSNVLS
Text: (§1) In addition to the HDAC profiling performed, we also queried 4b for any apparent potential off-target effects, which could complicate any finding of efficacy or adverse events in vivo due to ‘polypharmacy’. This was accomplished by screening against a ‘diversity panel’ of 72 binding and 29 enzyme assays, comprised of roughly equal numbers of selective central and peripheral therapeutically relevant targets (Cerep Diversity Profile). This panel included representative targets from diverse enzyme families, G protein coupled receptors, steroid nuclear receptors, voltage- and ligand-gated ion channels. While not totally inclusive, it is a useful tool for discovery compounds to assess their viability as proof of concept molecules to specifically query a particular target. 4b was initially screened at 10 µM in duplicate. The full set of results is provided as Table S1. […] This clean in vitro profile was considered acceptable to proceed to ADME and pharmacokinetic studies.

CysLT1 (LTD4) (h) = target: T2, CysLT1 (LTD4) (h) (Homo sapiens, UniProt Q9Y271); assay: Cerep binding, agonist radioligand; settings: read-out: % inhibition of control specific binding
T2 construct: purchased Cerep (Diversity Profile)
Text: as §1

CB1 (h) = target: T3, CB1 (h) (Homo sapiens, UniProt P21554); assay: Cerep binding, agonist radioligand; settings: read-out: % inhibition of control specific binding
T3 construct: purchased Cerep (Diversity Profile)
T3 sequence (P21554 whole entry): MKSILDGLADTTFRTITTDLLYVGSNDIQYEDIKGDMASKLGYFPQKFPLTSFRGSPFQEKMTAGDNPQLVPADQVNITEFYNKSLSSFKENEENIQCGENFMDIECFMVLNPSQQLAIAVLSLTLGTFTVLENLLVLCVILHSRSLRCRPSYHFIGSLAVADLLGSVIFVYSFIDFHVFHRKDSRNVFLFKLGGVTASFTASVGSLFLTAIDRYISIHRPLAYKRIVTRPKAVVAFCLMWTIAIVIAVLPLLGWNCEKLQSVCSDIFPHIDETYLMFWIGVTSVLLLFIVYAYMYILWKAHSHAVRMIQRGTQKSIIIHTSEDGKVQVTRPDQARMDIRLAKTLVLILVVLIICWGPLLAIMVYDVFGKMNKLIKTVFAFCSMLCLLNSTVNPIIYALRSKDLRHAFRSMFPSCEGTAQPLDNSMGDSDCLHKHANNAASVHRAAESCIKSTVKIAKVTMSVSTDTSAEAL
Text: as §1

CCK2 (CCKB) (h) = target: T4, CCK2 (CCKB) (h) (Homo sapiens, UniProt P32239); assay: Cerep binding, agonist radioligand; settings: read-out: % inhibition of control specific binding
T4 construct: purchased Cerep (Diversity Profile)
T4 sequence (P32239 whole entry): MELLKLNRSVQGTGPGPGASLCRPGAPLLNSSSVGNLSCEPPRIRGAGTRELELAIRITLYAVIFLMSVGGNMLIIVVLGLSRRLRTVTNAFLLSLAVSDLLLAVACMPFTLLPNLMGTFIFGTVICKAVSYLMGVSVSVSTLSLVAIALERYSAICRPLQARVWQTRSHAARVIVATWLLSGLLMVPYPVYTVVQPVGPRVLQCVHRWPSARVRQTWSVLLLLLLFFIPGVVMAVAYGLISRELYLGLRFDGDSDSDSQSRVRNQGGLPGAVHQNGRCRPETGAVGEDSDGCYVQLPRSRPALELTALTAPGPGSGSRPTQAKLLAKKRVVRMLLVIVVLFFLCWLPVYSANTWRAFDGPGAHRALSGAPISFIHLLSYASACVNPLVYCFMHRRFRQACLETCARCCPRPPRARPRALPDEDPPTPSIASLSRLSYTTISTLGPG
Text: as §1

AT2 (h) = target: T5, AT2 (h) (Homo sapiens, UniProt P50052); assay: Cerep binding, agonist radioligand; settings: read-out: % inhibition of control specific binding
T5 construct: purchased Cerep (Diversity Profile)
T5 sequence (P50052 whole entry): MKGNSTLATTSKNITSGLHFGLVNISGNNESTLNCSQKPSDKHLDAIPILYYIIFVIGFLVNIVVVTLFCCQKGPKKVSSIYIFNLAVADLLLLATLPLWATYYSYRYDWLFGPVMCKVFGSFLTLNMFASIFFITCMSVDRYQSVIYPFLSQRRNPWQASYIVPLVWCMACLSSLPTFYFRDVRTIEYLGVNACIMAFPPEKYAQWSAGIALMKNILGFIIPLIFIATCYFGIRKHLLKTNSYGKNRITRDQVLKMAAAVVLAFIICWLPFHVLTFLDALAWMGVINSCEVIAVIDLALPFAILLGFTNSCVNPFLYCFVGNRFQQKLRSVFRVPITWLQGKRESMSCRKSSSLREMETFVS
Text: as §1

A2A (h) = target: T6, A2A (h) (Homo sapiens, UniProt P29274); assay: Cerep binding, agonist radioligand; settings: read-out: % inhibition of control specific binding
T6 construct: purchased Cerep (Diversity Profile)
Text: as §1

H3 (h) = target: T7, H3 (h) (Homo sapiens, UniProt Q9Y5N1); assay: Cerep binding, agonist radioligand; settings: read-out: % inhibition of control specific binding
T7 construct: purchased Cerep (Diversity Profile)
Text: as §1

NK2 (h) = target: T8, NK2 (h) (Homo sapiens, UniProt P21452); assay: Cerep binding, agonist radioligand; settings: read-out: % inhibition of control specific binding
T8 construct: purchased Cerep (Diversity Profile)
Text: as §1

GABA (non‐selective) = assay: Cerep binding, agonist radioligand; settings: 10 μM
Text: as §1

MC4 (h) = target: T9, MC4 (h) (Homo sapiens, UniProt P32245); assay: Cerep binding, agonist radioligand; settings: read-out: % inhibition of control specific binding
T9 construct: purchased Cerep (Diversity Profile)
Text: as §1

V2 (h) = target: T10, V2 (h) (Homo sapiens, UniProt P30518); assay: Cerep binding, agonist radioligand; settings: read-out: % inhibition of control specific binding
T10 construct: purchased Cerep (Diversity Profile)
Text: as §1

2 (h) = target: T11, 2 (h) (Homo sapiens, UniProt P07550); assay: Cerep binding, agonist radioligand; settings: read-out: % inhibition of control specific binding
T11 construct: purchased Cerep (Diversity Profile)
Text: as §1

NK3 (h) = target: T12, NK3 (h) (Homo sapiens, UniProt P29371); assay: Cerep binding, antagonist radioligand; settings: read-out: % inhibition of control specific binding
T12 construct: purchased Cerep (Diversity Profile)
Text: as §1

D4.4 (h) = target: T13, D4.4 (h) (Homo sapiens, UniProt P21917); assay: Cerep binding, antagonist radioligand; settings: read-out: % inhibition of control specific binding
T13 construct: purchased Cerep (Diversity Profile)
T13 sequence (P21917 whole entry): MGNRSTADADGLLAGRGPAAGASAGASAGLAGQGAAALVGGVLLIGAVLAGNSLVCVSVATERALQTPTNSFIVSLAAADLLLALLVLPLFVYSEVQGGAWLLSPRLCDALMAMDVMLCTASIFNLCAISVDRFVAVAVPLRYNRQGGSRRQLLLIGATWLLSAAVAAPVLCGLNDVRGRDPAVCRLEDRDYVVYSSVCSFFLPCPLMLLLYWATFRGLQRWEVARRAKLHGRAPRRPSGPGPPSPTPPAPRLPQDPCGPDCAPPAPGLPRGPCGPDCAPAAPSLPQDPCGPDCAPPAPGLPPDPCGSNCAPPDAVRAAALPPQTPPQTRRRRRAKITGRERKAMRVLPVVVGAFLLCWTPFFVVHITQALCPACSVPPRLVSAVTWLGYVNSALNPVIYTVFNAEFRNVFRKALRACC
Text: as §1

I2 = assay: Cerep binding, antagonist radioligand; settings: 10 μM
Text: as §1

KV channel = assay: Cerep binding, antagonist radioligand; settings: 10 μM
Text: as §1

D3 (h) = target: T14, D3 (h) (Homo sapiens, UniProt P35462); assay: Cerep binding, antagonist radioligand; settings: read-out: % inhibition of control specific binding
T14 construct: purchased Cerep (Diversity Profile)
Text: as §1

D2S (h) = target: T15, D2S (h) (Homo sapiens, UniProt P14416); assay: Cerep binding, antagonist radioligand; settings: read-out: % inhibition of control specific binding
T15 construct: purchased Cerep (Diversity Profile)
T15 sequence (P14416 1-414 isoform P14416-2): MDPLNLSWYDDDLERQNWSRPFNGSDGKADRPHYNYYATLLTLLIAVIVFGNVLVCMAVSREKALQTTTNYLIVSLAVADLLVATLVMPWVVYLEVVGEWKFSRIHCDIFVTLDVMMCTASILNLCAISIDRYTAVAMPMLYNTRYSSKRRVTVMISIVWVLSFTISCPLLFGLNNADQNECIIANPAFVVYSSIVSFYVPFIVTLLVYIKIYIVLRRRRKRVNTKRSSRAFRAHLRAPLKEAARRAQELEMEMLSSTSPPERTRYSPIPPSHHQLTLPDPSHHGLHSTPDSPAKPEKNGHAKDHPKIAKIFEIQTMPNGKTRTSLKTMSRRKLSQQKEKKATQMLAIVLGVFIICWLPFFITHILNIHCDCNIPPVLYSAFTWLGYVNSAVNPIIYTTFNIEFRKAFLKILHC
Text: as §1

A1 (h) = target: T16, A1 (h) (Homo sapiens, UniProt P30542); assay: Cerep binding, antagonist radioligand; settings: read-out: % inhibition of control specific binding
T16 construct: purchased Cerep (Diversity Profile)
Text: as §1

Cl‐channel (GABA‐gated) = assay: Cerep binding, antagonist radioligand; settings: 10 μM
Text: as §1

[1] = Cerep binding, antagonist radioligand; settings: 10 μM
Text: as §1

[2] = system: Ca2+ channel (L, verapamil site) (phenylalkylamine); assay: Cerep binding, antagonist radioligand; settings: 10 μM
Text: as §1

5‐HT transporter (h) = target: T17, 5‐HT transporter (h) (Homo sapiens, UniProt P31645); assay: Cerep binding, antagonist radioligand; settings: read-out: % inhibition of control specific binding
T17 construct: purchased Cerep (Diversity Profile)
T17 sequence (P31645 whole entry): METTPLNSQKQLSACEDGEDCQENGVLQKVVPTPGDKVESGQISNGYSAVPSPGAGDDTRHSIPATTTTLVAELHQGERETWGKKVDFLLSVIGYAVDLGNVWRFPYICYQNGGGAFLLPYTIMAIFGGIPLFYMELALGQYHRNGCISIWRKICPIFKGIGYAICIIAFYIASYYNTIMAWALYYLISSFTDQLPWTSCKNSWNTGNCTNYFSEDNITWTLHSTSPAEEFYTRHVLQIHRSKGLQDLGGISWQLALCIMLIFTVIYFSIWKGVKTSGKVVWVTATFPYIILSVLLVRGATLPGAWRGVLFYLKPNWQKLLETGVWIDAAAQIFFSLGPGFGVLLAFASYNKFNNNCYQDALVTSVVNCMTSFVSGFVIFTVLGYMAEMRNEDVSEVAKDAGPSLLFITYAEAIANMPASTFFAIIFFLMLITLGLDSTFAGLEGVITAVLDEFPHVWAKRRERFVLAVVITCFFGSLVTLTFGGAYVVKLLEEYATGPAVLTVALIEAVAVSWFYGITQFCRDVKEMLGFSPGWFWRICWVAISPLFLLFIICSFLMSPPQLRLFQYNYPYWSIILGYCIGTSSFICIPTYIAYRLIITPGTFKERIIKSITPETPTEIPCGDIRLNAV
Text: as §1

[3] = target: T18, choline transporter (CHT1) (h) (Homo sapiens, UniProt Q9GZV3); assay: Cerep binding, antagonist radioligand; settings: read-out: % inhibition of control specific binding
T18 construct: purchased Cerep (Diversity Profile)
Text: as §1

[4] = target: T19, norepinephrine transporter (h) (Homo sapiens, UniProt P23975); assay: Cerep binding, antagonist radioligand; settings: read-out: % inhibition of control specific binding
T19 construct: purchased Cerep (Diversity Profile)
T19 sequence (P23975 whole entry): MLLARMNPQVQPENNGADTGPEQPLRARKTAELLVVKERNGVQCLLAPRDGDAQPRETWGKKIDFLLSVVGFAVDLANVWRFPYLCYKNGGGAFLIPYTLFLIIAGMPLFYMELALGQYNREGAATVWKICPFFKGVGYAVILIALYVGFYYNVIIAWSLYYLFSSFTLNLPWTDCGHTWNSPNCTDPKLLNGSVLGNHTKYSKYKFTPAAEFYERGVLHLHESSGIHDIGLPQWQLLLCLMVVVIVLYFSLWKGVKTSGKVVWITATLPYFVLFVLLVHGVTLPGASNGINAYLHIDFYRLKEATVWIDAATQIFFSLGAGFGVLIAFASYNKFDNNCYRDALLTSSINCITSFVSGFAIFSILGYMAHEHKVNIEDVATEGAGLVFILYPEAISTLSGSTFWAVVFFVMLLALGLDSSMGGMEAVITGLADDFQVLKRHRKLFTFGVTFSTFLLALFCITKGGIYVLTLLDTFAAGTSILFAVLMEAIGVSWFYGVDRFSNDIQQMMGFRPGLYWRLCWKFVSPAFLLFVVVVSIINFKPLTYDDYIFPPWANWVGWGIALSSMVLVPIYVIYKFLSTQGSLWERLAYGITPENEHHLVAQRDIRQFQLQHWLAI
Text: as §1

dopamine transporter (h) = target: T20, dopamine transporter (h) (Homo sapiens, UniProt Q01959); assay: Cerep binding, antagonist radioligand; settings: read-out: % inhibition of control specific binding
T20 construct: purchased Cerep (Diversity Profile)
T20 sequence (Q01959 whole entry): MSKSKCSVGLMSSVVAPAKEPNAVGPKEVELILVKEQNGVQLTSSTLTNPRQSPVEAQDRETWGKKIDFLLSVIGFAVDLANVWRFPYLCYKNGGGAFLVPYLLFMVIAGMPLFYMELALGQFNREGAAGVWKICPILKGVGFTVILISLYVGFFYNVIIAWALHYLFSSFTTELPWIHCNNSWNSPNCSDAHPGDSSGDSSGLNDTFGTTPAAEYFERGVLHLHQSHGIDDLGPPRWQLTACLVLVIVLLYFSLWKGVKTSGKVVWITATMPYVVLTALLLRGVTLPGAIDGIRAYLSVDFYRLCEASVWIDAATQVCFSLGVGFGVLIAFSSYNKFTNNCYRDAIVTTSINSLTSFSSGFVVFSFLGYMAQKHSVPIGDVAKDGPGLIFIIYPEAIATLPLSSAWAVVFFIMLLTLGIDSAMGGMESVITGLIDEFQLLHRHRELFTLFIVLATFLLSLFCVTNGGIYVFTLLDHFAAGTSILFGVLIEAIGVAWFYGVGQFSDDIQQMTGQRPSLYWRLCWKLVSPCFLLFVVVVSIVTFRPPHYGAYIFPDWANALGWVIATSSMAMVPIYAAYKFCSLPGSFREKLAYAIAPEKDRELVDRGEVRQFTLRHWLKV
Text: as §1

H1 (h) = target: T21, H1 (h) (Homo sapiens, UniProt P35367); assay: Cerep binding, antagonist radioligand; settings: read-out: % inhibition of control specific binding
T21 construct: purchased Cerep (Diversity Profile)
T21 sequence (P35367 whole entry): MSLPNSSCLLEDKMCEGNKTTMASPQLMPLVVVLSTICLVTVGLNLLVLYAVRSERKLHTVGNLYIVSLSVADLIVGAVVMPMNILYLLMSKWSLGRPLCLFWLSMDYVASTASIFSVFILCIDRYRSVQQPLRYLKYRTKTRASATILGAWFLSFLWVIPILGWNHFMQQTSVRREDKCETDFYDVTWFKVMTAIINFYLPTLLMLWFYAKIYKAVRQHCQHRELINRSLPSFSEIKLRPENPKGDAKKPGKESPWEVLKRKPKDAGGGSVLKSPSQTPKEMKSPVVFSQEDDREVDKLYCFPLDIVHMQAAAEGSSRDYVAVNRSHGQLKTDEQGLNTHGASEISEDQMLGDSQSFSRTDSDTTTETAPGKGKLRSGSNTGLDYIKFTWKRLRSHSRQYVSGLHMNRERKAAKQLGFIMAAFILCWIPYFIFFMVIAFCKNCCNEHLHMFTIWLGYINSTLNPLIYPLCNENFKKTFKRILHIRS
Text: as §1

CCK1 (CCKA) (h) = target: T22, CCK1 (CCKA) (h) (Homo sapiens, UniProt P32238); assay: Cerep binding, agonist radioligand (CCK-8S); settings: for inhibition at 10 µM: read-out: % inhibition of control specific binding
T22 construct: Cerep
T22 sequence (P32238 1-428): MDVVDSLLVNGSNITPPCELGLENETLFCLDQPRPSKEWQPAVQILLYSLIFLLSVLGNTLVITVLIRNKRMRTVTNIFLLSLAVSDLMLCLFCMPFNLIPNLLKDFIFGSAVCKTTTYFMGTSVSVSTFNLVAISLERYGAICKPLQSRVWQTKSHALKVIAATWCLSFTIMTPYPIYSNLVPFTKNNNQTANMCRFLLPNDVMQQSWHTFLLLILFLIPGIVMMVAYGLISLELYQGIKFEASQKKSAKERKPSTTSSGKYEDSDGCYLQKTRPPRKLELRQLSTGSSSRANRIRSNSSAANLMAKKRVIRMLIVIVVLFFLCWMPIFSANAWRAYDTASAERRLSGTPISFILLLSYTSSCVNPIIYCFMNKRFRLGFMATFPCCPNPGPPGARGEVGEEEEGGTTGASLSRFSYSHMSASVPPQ
Text: as §1
Supplementary file pone.0044498.s001.tif: Figure S1 Displacement of CCK-8S (agonist radioligand) from the CCK1 receptor by 4b and C1. (TIF) Click here for additional data file.

Compound: Nc1ccccc1NC(=O)CCCCCC(=O)Nc1ccccc1 [Compound 4b]
inhibition at 10 µM (NK1 (h)): 7% | inhibition at 10 µM (CysLT1 (LTD4) (h)): 0% | inhibition at 10 µM (CB1 (h)): 7% | inhibition at 10 µM (CCK2 (CCKB) (h)): 0% | inhibition at 10 µM (AT2 (h)): 4% | inhibition at 10 µM (A2A (h)): 0% | inhibition at 10 µM (H3 (h)): 0% | inhibition at 10 µM (NK2 (h)): 5% | % inhibition of control specific binding (GABA (non‐selective)): 14% | inhibition at 10 µM (MC4 (h)): 1% | inhibition at 10 µM (V2 (h)): 6% | inhibition at 10 µM (2 (h)): 2% | inhibition at 10 µM (NK3 (h)): 0% | inhibition at 10 µM (D4.4 (h)): 13% | % inhibition of control specific binding (I2): 5% | % inhibition of control specific binding (KV channel): 2% | inhibition at 10 µM (D3 (h)): 10% | inhibition at 10 µM (D2S (h)): 3% | inhibition at 10 µM (A1 (h)): 7% | % inhibition of control specific binding (Cl‐channel (GABA‐gated)): 0% | % inhibition of control specific binding [1]: 0% | % inhibition of control specific binding [2]: 7% | inhibition at 10 µM (5‐HT transporter (h)): 5% | inhibition at 10 µM [3]: 14% | inhibition at 10 µM [4]: 0% | inhibition at 10 µM (dopamine transporter (h)): 2% | inhibition at 10 µM (H1 (h)): 10% | inhibition at 10 µM (CCK1 (CCKA) (h)): 72% | Ki (CCK1 (CCKA) (h); follow up concentration-effect curve): 8.6 µM

inhibition at 10 µM (NK1 (h); 10 μM): 9% | inhibition at 10 µM (CysLT1 (LTD4) (h); 10 μM): 0% | inhibition at 10 µM (CB1 (h); 10 μM): 18% | inhibition at 10 µM (CCK2 (CCKB) (h); 10 μM): 3% | inhibition at 10 µM (AT2 (h); 10 μM): 12% | inhibition at 10 µM (A2A (h); 10 μM): 9% | inhibition at 10 µM (H3 (h); 10 μM): 8% | inhibition at 10 µM (NK2 (h); 10 μM): 9% | % inhibition of control specific binding (GABA (non‐selective)): 5% | inhibition at 10 µM (MC4 (h); 10 μM): 0% | inhibition at 10 µM (V2 (h); 10 μM): 5% | inhibition at 10 µM (2 (h); 10 μM): 2% | inhibition at 10 µM (NK3 (h); 10 μM): 4% | inhibition at 10 µM (D4.4 (h); 10 μM): 31% | % inhibition of control specific binding (I2): 73% | % inhibition of control specific binding (KV channel): 3% | inhibition at 10 µM (D3 (h); 10 μM): 11% | inhibition at 10 µM (D2S (h); 10 μM): 2% | inhibition at 10 µM (A1 (h); 10 μM): 9% | % inhibition of control specific binding (Cl‐channel (GABA‐gated)): 0% | % inhibition of control specific binding [1]: 13% | % inhibition of control specific binding [2]: 19% | inhibition at 10 µM (5‐HT transporter (h); 10 μM): 5% | inhibition at 10 µM ([3]; 10 μM): 40% | inhibition at 10 µM ([4]; 10 μM): 30% | inhibition at 10 µM (dopamine transporter (h); 10 μM): 23% | inhibition at 10 µM (H1 (h); 10 μM): 45% | inhibition at 10 µM (CCK1 (CCKA) (h)): 68% | IC50 (CCK1 (CCKA) (h); read-out: IC50, displacement of CCK1 agonist radioligand binding): 6.1 µM
Compound: O=C(CCCCCc1nc2ccccc2[nH]1)Nc1ccccc1 [Compound C1, 6-(1-H-benzo[d]imidazol-2-yl)-N-phenylhexanamide]
